Test results as given in patent US20230041065A1, “METHODS FOR GENERATING HEMATOPOIETIC STEM CELLS” (The Brigham and Women`s Hospital, Inc., priority 2019, published 2023).
“Also recorded” adds a separate entry of the source.

Tests used:
Dnmt3a = Dnmt3a protein level in nuclear fractions of E11.5 AGM cells; type: cell-based, mouse
Procedure: RNA-sequencing analyses were performed to measure gene expression patterns in mouse AGM treated with cyclic strain or pharmacological modulators. Using computational algorithms, hierarchical clustering was performed of differentially expressed genes as well as measured their overrepresented biological processes and pathways. Gene expression clusters of differentially expressed genes were analyzed and their mean expression level across cell populations compared. Next, Venn comparison of up- and down-genes was constructed to analyze candidate(s) important for cyclic strain- or pharmacological modulator(s)-mediated the endothelial-to-HSC transition. Furthermore, Dnmt3b and Dnmt3a protein expressions were analyzed in nuclear fractions of mouse AGM cells using EqiQuick assay kits. Data are presented as mean±s.d. unless otherwise noted. Statistical analyses were performed by paired or un-paired Student's t-tests. Significance was set at P<0.05.
Nuclear extracts from AGM explants were harvested using an EpiQuik Nuclear Extraction Kit (Epigentek Group Inc.). Dnmt3b and Dnmt3a protein levels were analyzed using a colorimetric EpiQuik Assay Kit (Epigentek Group Inc.), according to the manufacturer's instructions. Concentration of Dnmt3b and Dnmt3a is relative to 1 μg of nuclear extract proteins.

[1] = tested on: human iPSC-derived MACS-sorted CD34+ cells; assay: Hematopoietic CFU assays of human iPSC-derived MACS-sorted CD34+ cells; type: cell-based; conditions: 20,000 hCD34+ cells per sample
Procedure: Embryoid body and hemogenic endothelium differentiation was performed as described in (Sugimura et al. 2017; Ditadi et al. 2015). Briefly, hiPSC colonies were dissociated with 0.05% trypsin for 5 min at 37° C., washed with PBS+2% FBS, and resuspended in StemPro-34 (Invitrogen, 10639-011) supplemented with L-glutamine (2 mM), penicillin/streptomycin ([…]), ascorbic acid (1 mM), human holo-Transferrin ([…], Sigma T0665), monothioglycerol (MTG, 0.4 mM), BMP4 (10 ng/ml), and Y-27632 (10 μM). Five million cells were seeded into 10 cm dishes (Ezsphere, Asahi Glass) for the spheroid formation. On Day 1, bFGF (5 ng/ml) and BMP4 (10 ng/ml) was added to the medium. On Day 2, the media was changed with the StemPro-34 supplemented with SB431542 (6 μM), CHIR99021 (3 μM), bFGF (5 ng/ml), and BMP4 (10 ng/ml). On Day 3, the medium was replaced with StemPro-34 supplemented with VEGF (15 ng/ml) and bFGF (10 ng/ml). On day 6, the medium was changed to StemPro-34 supplemented with bFGF (5 ng/ml), VEGF (15 ng/ml), interleukin (IL)-6 (10 ng/ml), IGF-1 (25 ng/ml), IL-11 (5 ng/ml), SCF (50 ng/ml) and EPO (2IU). The cells were maintained in a 5% CO2, 5% O2 and 95% humidity incubator. All cytokines were purchased from Peprotech. […]

[2] = tested on: human PSC (DF19-9-7T)-derived hCD34+ hematopoietic cells; assay: Transplantation of human PSC-derived hCD34+ hematopoietic cells in humanized mice; type: in vivo
[3] = tested on: human iPSC-derived hemogenic endothelial cells; assay: Yoda1 treatment of human iPSC-derived hemogenic endothelial cells: EHT and gene expression; type: cell-based
Excerpt: To determine the role of Dnmt3b in the EHT, we analyzed the endothelial and hematopoietic gene expression levels using whole transcriptome analyses. […] To consolidate our findings, we further independently measured the transcript levels of endothelial and hematopoietic genes. […] In summary, pulsation-mediated Piezo1 activation enhances Dnmt3b expression to repress endothelial genes, stimulating the endothelial-to-HSC transition. To analyze the conserved role of PIEZO1-mediated mechanosensitive mechanisms in human hematopoiesis, we employed directed differentiation of constitutive RUNX1c:tdTomato human induced pluripotent stem cells (iPSCs) to hemogenic endothelial cells, and treated such hemogenic endothelial cells with Yoda1.
Embryoid body and hemogenic endothelium differentiation was performed as described in (Sugimura et al. 2017; Ditadi et al. 2015). Briefly, hiPSC colonies were dissociated with 0.05% trypsin for 5 min at 37° C., washed with PBS+2% FBS, and resuspended in StemPro-34 (Invitrogen, 10639-011) supplemented with L-glutamine (2 mM), penicillin/streptomycin ([…]), ascorbic acid (1 mM), human holo-Transferrin ([…], Sigma T0665), monothioglycerol (MTG, 0.4 mM), BMP4 (10 ng/ml), and Y-27632 (10 μM). Five million cells were seeded into 10 cm dishes (Ezsphere, Asahi Glass) for the spheroid formation. On Day 1, bFGF (5 ng/ml) and BMP4 (10 ng/ml) was added to the medium. On Day 2, the media was changed with the StemPro-34 supplemented with SB431542 (6 μM), CHIR99021 (3 μM), bFGF (5 ng/ml), and BMP4 (10 ng/ml). On Day 3, the medium was replaced with StemPro-34 supplemented with VEGF (15 ng/ml) and bFGF (10 ng/ml). On day 6, the medium was changed to StemPro-34 supplemented with bFGF (5 ng/ml), VEGF (15 ng/ml), interleukin (IL)-6 (10 ng/ml), IGF-1 (25 ng/ml), IL-11 (5 ng/ml), SCF (50 ng/ml) and EPO (2IU). The cells were maintained in a 5% CO2, 5% O2 and 95% humidity incubator. All cytokines were purchased from Peprotech.

[4] = human iPSC-derived hemogenic endothelial cells

Compound: Clc1cccc(Cl)c1CSc1nnc(-c2cnccn2)s1 [Yoda1, 2-[5-[[(2,6-Dichlorophenyl)methyl]thio]-1,3,4-thiadiazol-2-yl]-pyrazine]
- Dnmt3a protein expression (Dnmt3a): not Dnmt3a; also recorded: without impacting the expression of Dnmt3a
- multipotent GEMM progenitor formation [1]: elevated multipotent hematopoietic progenitor formation and human hematopoiesis; also recorded: stimulates multipotent GEMM progenitor formation and human hematopoiesis
- percentage of bone marrow reconstitution to human CD33+, CD3+ and CD19+ cells ([2]; primary transplant): stimulates the formation of hCD34+ hematopoietic cells that reconstitute multi-lineage blood
- percentage of bone marrow chimerism ([2]; primary transplant, after 8-10 weeks): enhances the formation of engraftable human CD34+ cells; also recorded: enhances the formation of engraftable hCD34+ cells
- percentage peripheral blood reconstitution to human CD33+, CD3+ and CD19+ cells ([2]; secondary transplant): stimulates the formation of human LT-HSCs that reconstitute multi-lineage blood upon serial transplantation
- percentage of peripheral blood chimerism ([2]; secondary transplant, after 16 weeks): enhances the formation of self-renewing LT-HSCs
- human endothelial-to-hematopoietic transition ([3]; RUNX1c:tdTomato human iPSC-derived hemogenic endothelial cells): stimulated the human endothelial-to-hematopoietic transition
- DNMT3A expression [3, 4]: not DNMT3A expression
- DNMT3B expression [3, 4]: enhanced DNMT3B expression
- expression of endothelial genes (VEGFA, HEY2, GPR116, GNA13, CDH5, PLXND1) [3, 4]: silenced endothelial genes
- expression of hematopoietic genes (RUNX1, SPI1, CEBPA, TAL1, GATA2) [3, 4]: induced the expression of hematopoietic genes
